The test system of this experiment is cerebrocortical cat brain tissue slice. The experiment can be described thus: In vitro Cerebrocortical Cat Brain Tissue Slice Assay (inhibition of HCO3^- -stimulated swelling). It is filed as cell-based. As to conditions: Felis catus, 1 h, 27 mM K^+, 10 mM HCO3^-, 37° C., 60 min incubation. How it is done: See, e.g., Bourke et al., Neurochem. Res., 8, 5 (1983), and Cragoe et al., J. Med. Chem., 25, 567 (1982).
In Vitro Cerebrocortical Cat Brain Tissue Slice Assay
Adult cats of 2-3 kg body weight were employed in tissue slice studies. Prior to sacrifice, the animals were anesthetized with ketamine hydrochloride, 10 mg/kg intramuscularly. Eight (three control, five experimental) pial surface cerebrocortical tissue slices (0.5 mm thick; approximately 150 mg initial fresh weight) were cut successively with a calibrated Stadie-Riggs fresh tissue microtome without moistening and weighed successively on a torsion balance. […]
Following the 60-minute incubation period, tissue slices were separated from incubation medium by filtration, reweighed, and homogenized in 1N HClO4 (10% w/v) for electrolyte analysis. […] Control slice swelling is expressed as microliters per gram initial preswelling fresh weight. The effectiveness of an inhibitor at a given concentration was measured by the amount of HCO3^- -stimulated swelling that occurred in its presence, computed as a percent of the maximum possible and is reported as an IC50, (See, e.g., Table I (Example 6)). Tissue and media Na^+ and K^+ levels were determined by emission flame photometry with Li^+ internal standard; Cl^- levels were determined by amperometric titration. Tissue viability during incubation is monitored by manometry.

As a reminder, the IC50 is the concentration at which inhibition is half-maximal.

`CC1(C2CCCC2)Cc2cc(OCCCS(=O)(=O)O)c(Cl)c(Cl)c2C1=O` (centres unmarked) [Example 1, Sodium 3-[(6,7-dichloro-2-cyclopentyl-2-methyl-1-oxo-2,3-dihydro-1H-inden-5-yl)oxy]propanesulfonate hydrate] registered an IC50 of 0.02 µM.
Next, `CC1(C2CCCC2)Cc2cc(OCCCS(=O)(=O)O)c(Cl)c(Cl)c2C1=O` (single isomer, unassigned) [Example 2, Sodium (+)3-[(6,7-dichloro-2-cyclopentyl-2-methyl-1-oxo-2,3-dihydro-1H-inden-5-yl)oxy]propanesulfonate hydrate]: 0.02 µM.
